Tests used:
Assay in all cases: Qualitative test of AARS substrate specificity (molybdenum blue method)
Format in all cases: biochemical, Thermotoga maritima MSB8 strain
Design in all cases: key: +: Activity was detected; −: Activity was not detected
Thermotoga-derived HisRS = molecular target: T1, Thermotoga-derived HisRS (Thermotoga maritima, UniProt Q9X0H5); settings: Tyr 1 mM, other amino acids 5 mM; hydroxylamine 1000 mM; HisRS 0.1 mg/ml; 30° C.
T1 construct: His tag (C); made in house; host or cells: Escherichia coli BL21 (DE3)
T1 sequence (Q9X0H5 1-420): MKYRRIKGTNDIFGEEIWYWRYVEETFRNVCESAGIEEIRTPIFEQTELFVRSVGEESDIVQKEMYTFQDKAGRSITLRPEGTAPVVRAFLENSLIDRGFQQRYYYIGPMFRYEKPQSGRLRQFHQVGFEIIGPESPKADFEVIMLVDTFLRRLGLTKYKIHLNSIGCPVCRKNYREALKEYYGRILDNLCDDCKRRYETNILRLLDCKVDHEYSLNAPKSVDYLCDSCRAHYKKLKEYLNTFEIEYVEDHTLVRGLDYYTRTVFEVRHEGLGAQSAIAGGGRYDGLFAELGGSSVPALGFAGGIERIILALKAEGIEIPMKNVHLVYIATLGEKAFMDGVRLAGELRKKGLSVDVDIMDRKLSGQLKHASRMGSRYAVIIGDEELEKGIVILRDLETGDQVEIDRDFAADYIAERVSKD
Procedure: (§1) A test sample containing an amino acid as the measurement subject and a reaction mixture for quantifying amino acid having the following composition were mixed. The mixture was left standing at 30° C. to allow the AARS reaction to advance. The mixture in a volume of 33 μl, 66 μl of water, and 1 μl of a 300 U/ml yeast pyrophosphatase solution were mixed, and left standing at room temperature for 20 minutes to allow the pyrophosphatase reaction to advance. Then, the reaction mixture was mixed with 100 μl of a color development solution A and 30 μl of a color developing solution B having the following compositions, then the mixture was left standing at room temperature for 5 minutes, and the absorbance was measured at 700 nm or 900 nm with a microplate reader.
(§2) Reaction mixture for quantifying amino acid: 20 mM Tris-HCl (pH 7.0), 5 mM MgCl2, 2 mM ATP, and AARS (concentrations are final concentrations obtained after mixing with test sample)
(§3) Color developing solution A: A solution obtained by mixing water and concentrated sulfuric acid at a ratio of 3:1 and dissolving (NH4)6Mo7O24.4H2O in the mixture at a concentration of 0.066 g/ml
(§4) Color developing solution B: A solution obtained by mixing water and concentrated sulfuric acid at a ratio of 10000:7 and dissolving FeSO4.7H2O in the mixture at a concentration of 145 mg/ml
(§5) Presence or absence of pyrophosphate generation was verified for the Thermotoga-derived CysRS, HisRS, LysRS, ProRS, SerRS, TrpRS, and TyrRS by using the AARS activity measurement method described in 9. and standard solutions of the various amino acids as test samples. AARSs were added to the reaction mixture at final concentrations of 0.3 (8 mU/ml), 0.1, 0.2 (3 mU/ml), 0.2, 0.1 (1 mU/ml), 0.1, 0.2 (20 mU/ml) mg/ml, respectively. The reaction mixtures were prepared so that the final concentration of Tyr was 1 mM, and the final concentrations of the other amino acids were 5 mM. As for the hydroxylamine concentration, it was added at a final concentration of 1000 mM for all the cases. Further, presence or absence of pyrophosphate production was also verified for the Thermus-derived MetRS and TyrRS by using the AARS activity measurement method described in 10. and standard solutions of the various amino acids as test samples. The reaction mixtures were prepared so that the final concentrations of the amino acids were 200 μM. Hydroxylamine was added at a final concentration of 400 mM.
(§6) Detection or no detection of the activity in the reaction mixtures containing a combination of each AARS and amino acid are shown in Table 2. The symbol + indicates detection of the activity, and − indicates no detection of the activity.

Thermotoga-derived LysRS = molecular target: T2, Thermotoga-derived LysRS (Thermotoga maritima, UniProt Q9X231); settings: Tyr 1 mM, other amino acids 5 mM; hydroxylamine 1000 mM; LysRS 0.2 mg/ml (3 mU/ml); 30° C.
T2 construct: His tag (C); made in house; host or cells: Escherichia coli BL21 (DE3)
T2 sequence (Q9X231 1-502): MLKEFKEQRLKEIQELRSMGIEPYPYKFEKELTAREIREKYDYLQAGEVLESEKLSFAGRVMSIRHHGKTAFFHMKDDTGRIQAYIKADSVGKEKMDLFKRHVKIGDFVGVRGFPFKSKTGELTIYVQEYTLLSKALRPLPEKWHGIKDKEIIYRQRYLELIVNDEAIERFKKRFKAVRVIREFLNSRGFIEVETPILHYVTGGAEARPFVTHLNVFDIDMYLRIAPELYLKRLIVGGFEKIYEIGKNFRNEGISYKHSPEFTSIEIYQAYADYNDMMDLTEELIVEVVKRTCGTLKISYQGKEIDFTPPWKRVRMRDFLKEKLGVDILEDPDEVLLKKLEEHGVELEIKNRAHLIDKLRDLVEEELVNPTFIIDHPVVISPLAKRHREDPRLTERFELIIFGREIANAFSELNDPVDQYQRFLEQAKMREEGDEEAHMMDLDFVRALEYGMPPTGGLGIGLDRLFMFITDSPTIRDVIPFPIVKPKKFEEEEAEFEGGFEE
Procedure: as §1, §2, §3, §4, §5, §6

Thermotoga-derived ProRS = molecular target: T3, Thermotoga-derived ProRS (Thermotoga maritima, UniProt Q9WYY4); settings: Tyr 1 mM, other amino acids 5 mM; hydroxylamine 1000 mM; ProRS 0.2 mg/ml; 30° C.
T3 construct: His tag (C); made in house; host or cells: Escherichia coli BL21 (DE3)
T3 sequence (Q9WYY4 1-577): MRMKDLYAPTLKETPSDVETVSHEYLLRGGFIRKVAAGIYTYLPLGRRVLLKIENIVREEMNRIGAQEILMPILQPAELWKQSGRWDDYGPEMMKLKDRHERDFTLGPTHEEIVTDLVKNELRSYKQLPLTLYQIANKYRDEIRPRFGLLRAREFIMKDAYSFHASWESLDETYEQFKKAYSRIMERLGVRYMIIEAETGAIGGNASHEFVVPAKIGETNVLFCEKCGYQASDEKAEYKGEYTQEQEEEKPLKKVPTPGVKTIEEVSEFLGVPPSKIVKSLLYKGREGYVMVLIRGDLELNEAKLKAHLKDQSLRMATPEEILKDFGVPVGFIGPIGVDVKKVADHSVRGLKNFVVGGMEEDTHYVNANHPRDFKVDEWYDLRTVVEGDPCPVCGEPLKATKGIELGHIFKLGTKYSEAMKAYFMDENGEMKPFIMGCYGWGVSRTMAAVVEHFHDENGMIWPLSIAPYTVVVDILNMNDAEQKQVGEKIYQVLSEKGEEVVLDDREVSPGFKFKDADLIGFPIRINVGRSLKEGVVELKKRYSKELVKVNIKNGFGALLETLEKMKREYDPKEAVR
Procedure: as §1, §2, §3, §4, §5, §6

| SMILES | Detection of the activity (pyrophosphate generation), HisRS (Thermotoga-derived HisRS) | Detection of the activity (pyrophosphate generation), LysRS (Thermotoga-derived LysRS) | Detection of the activity (pyrophosphate generation), ProRS (Thermotoga-derived ProRS) |
| --- | --- | --- | --- |
| C[C@H](N)C(=O)O [Ala, L-alanine] | − | − | − |
| N=C(N)NCCC[C@H](N)C(=O)O [Arg, L-arginine] | − | − | − |
| NC(=O)C[C@H](N)C(=O)O [Asn, L-asparagine] | − | − | − |
| N[C@@H](CC(=O)O)C(=O)O [Asp, L-aspartic acid] | − | − | − |
| N[C@@H](CS)C(=O)O [Cys, L-cysteine] | − | − | − |
| NC(=O)CC[C@H](N)C(=O)O [Gln, L-glutamine] | − | − | − |
| N[C@@H](CCC(=O)O)C(=O)O [Glu, L-glutamic acid] | − | − | − |
| NCC(=O)O [Gly, glycine] | − | − | − |
| N[C@@H](Cc1c[nH]cn1)C(=O)O [His, L-histidine] | + | − | − |
| CC[C@H](C)[C@H](N)C(=O)O [Ile, L-isoleucine] | − | − | − |
| CC(C)C[C@H](N)C(=O)O [Leu, L-leucine] | − | − | − |
| NCCCC[C@H](N)C(=O)O [Lys, L-lysine] | − | + | − |
| CSCC[C@H](N)C(=O)O [Met, L-methionine] | − | − | − |
| N[C@@H](Cc1ccccc1)C(=O)O [Phe, L-phenylalanine] | − | − | − |
| O=C(O)[C@@H]1CCCN1 [Pro, L-proline] | − | − | + |
| N[C@@H](CO)C(=O)O [Ser, L-serine] | − | − | − |
| C[C@@H](O)[C@H](N)C(=O)O [Thr, L-threonine] | − | − | − |
| N[C@@H](Cc1c[nH]c2ccccc12)C(=O)O [Trp, L-tryptophan] | − | − | − |
| N[C@@H](Cc1ccc(O)cc1)C(=O)O [Tyr, L-tyrosine] | − | − | − |
| CC(C)[C@H](N)C(=O)O [Val, L-valine] | − | − | − |

Reference: patent US9708639B2, “Method for quantifying amino acids with pyrophosphate” (TOYAMA PREFECTURE, priority 2012, dated 2017)
